Experimental data reported in patent US4616028A, “Substituted 2,3,4,9-tetrahydro-1H-carbazole-1-acetic acid derivatives, compositions and use” (American Home Products Corporation, priority 1985, dated 1986).
Counter-ions that a name gives are not always drawn.

What was measured:
[1] = tested on: Phenylquinone Writhing; assay: Phenylquinone-induced writhing in mice; assay type: in vivo, mouse (male Swiss albino); details: for Phenylquinone Writhing in Mice % Inhibition: p.o.; for ED50: ED50, mice (second results table)
Procedure: A further test used to determine the utility of the compounds of the present invention is designated: DRUG EFFECTS ON PHENYLQUINONE-INDUCED WRITHING IN MICE […]
The objective of this test is to determine the ability of test drugs to inhibit the nociceptive (pain) response of mice injected with a chemical irritant. This test is a primary screen for both peripheral and centrally acting analgesic drugs.
Male Swiss albino mice (15-25 g). The animals are fasted for 18 hours prior to use but have free access to water.
(§1) Drug Preparation and Administration:
Drugs are dissolved or suspended according to their solubility in 0.5% methyl cellulose or 0.5% Tween 80. They are administered by gastric lavage in a volume of 5 ml/kg. For primary screening all drugs are administered at the arbitrary dosage of 200 mg/kg, p.o. to a group of 10 mice.
A modification of the method of Siegmund at el., Proc. Soc. Exp. Biol. Med., 95, 729-731 (1957) is used. Groups of 5 mice are dosed with the test compound or vehicle control. Sixty minutes later the animals are injected i.p. with 0.3 ml/20 g body weight of a 0.02% solution of phenylquinone (PBQ; 2-phenyl-1,4-benzoquinone) and placed in individual observation boxes. The numer of writhing or abdominal squirming movements made by each mouse during the following 15 min. period is counted. The experiment is repeated with another group of 5 mice and the mean number of writhes per mouse for a group of 10 mice is calculated.
Drug treated and vehicle-treated control groups are compared and the percentage protection conferred by the drug is calculated:
Percentage protection=(c-t)100/c […]
where c=mean number of writhes in the control group where t=mean number of writhes in the test drug group

[2] = tested on: Adjuvant Edema; assay: Preventative Adjuvant Edema (Freund's complete adjuvant, hind paw volume); assay type: in vivo, rat (male Sprague Dawley); details: for ED50: ED50, rat (second results table); for Preventative Adjuvant Edema % Inhibition: p.o., rat
Procedure: This test is a primary screen for anti-inflammatory drugs.
Male Sprague Dawley rats (180-200 g) are used. The animals have free access water but food is withdrawn 18 hours before testing.
Drug Preparations and Administration:
Freund's complete adjuvant is prepared by suspending 5 mg killed and dried Mycobacterium butyricum (Difco) in 1 ml liquid paraffin. The test compounds are dissolved in distilled water or suspended in distilled water with a few drops of Tween 80 according to their solubility. For primary screening all drugs are administrated by gastric lavage at the arbitrary dosage of 100 mg/kg, p.o. in a volume of 0.5 ml/100 g body weight to groups of 10 animals.
The method is essentially that described by Wax et al., J. Pharmacol. Exp. Ther., 192, 166-171 (1975). Groups of rats are injected intradermally in the left hind paw with 0.1 ml of Freund's complete adjuvant. The test compound or vehicle is administrated before the adjuvant, 24 hours and 48 hours after the adjuvant (day 0, 1 and 2). The injected hind paw volume is measured before the injection of adjuvant and 24 hrs. after the last drug administration (day 3) by means of a plethysmometer (Buxco Electronics Inc.). The difference between then hind paw volume on day 0 and day 3 represents the edema volume. Phenylbutazone (50 mg/kg, p.o.) is included as a positive control.
The mean edema volume (expressed as ml±SEM) is calculated for each group and the percentage protection conferred by the drug is calculated:
where c is the mean edema volume for the untreated controls and t is the mean edema volume for the drug treated group.

[3] = tested on: inflamed paw; assay: Paw Pressure Test in the Rat (Freund's adjuvant inflamed paw, pain threshold); assay type: in vivo, rat (male Sprague Dawley); details: for ED50: po
Description: A still further test used to determine the utility of the compounds of the present invention is designated: PAW PRESSURE TEST IN THE RAT
The objective of this test is to assess the potency of peripheral and central acting drugs in inhibiting the reaction of rats to painful stimulation applied to an inflamed paw.
Male Sprague Dawley rats (180-200 g) are used. The animals are fasted overnight prior to drug administration.
as §1
Freund's Complete Adjuvant (FCA) is prepared by suspending 5 mg killed and dried mycobacterium butyricum (Difco) in 1 ml liquid paraffin. The test compounds are dissolved, or suspended with a few drops of Tween 80, in distilled water according to their solubility. They are administered by gastric gavage in a volume of 0.5 ml/100 g body weight to groups of 10 animals.
Ten rats are used per group. The method is essentially that described by Randall, et al., Arch. Int. Pharmacodyn. 111, 409 (1957) and the apparatus which is used to apply pressure to the paw (Analgesy-meter for the rat paw, Ugo Basile from Coulbourn Instruments) is a modification of that described by Gilfoil et al., J. Pharmacol, 142, 1 (1963). The instrument is basically a device which exerts a force that increases at a constant rate. The force is continuously monitored by a pointer moving along a linear scale and is measured in grams. The inflammatory reaction is induced in the left hind paw of rats by injecting 0.1 ml of Freund's adjuvant intradermally. The test compound or vehicle is administered 24 hours after the adjuvant. Prior to drug administration the rats are selected for their paw sensitivity. Rats responding to a pain threshold greater than 10 g applied to the inflamed paw are rejected. The pain threshold (vocalization) is determined 1 and 3 hours later in the inflamed paw and the normal paw of the treated and control groups. The higher of the 2 readings will be considered as representative of the drug effect on the pain threshold.
Presentation of results and Criteria for Activity:
Each animal which has a reading 1.5 times greater than the mean reading of the control-group will be considered as responsive to treatment. The number of animals showing an analgesic effect is then determined in each group.
The ED50 (dose which causes analgesia in 50% of the animals) using at least 3 doses is then determined, by the method described in Litchfield et al., J. Pharmacol. Exp. Ther., 96, 99 (1949).

[4] = po, 72 h, rat (second results table), read-out: Preventative Adjuvant Edema percent inhibition
[5] = Mus musculus, po, mice (second results table), read-out: Phenylquinone Writhing in Mice percent inhibition
[6] = ED50, rat (second results table)

| Compound | inhibition in vivo at 25 mg/kg [2, 4] | inhibition in vivo at 25 mg/kg [1, 5] | ED50 ([1]; Mus musculus, po) | further results |
| --- | --- | --- | --- | --- |
| CCCC1CCC(CC)(CC(=O)O)c2[nH]c3c(CC)cccc3c21 (stereo not shown) [4-propyl-1,8-diethyl-2,3,4,9-tetrahydro-1H--carbazole-1-acetic acid, reference compound] |  |  |  | Phenylquinone Writhing in Mice % Inhibition ([1]; 25 mg/kg): 15%; Phenylquinone Writhing in Mice % Inhibition ([1]; 200 mg/kg): 56% |
| C=CCC1CCC(C)(CC(=O)O)c2[nH]c3c(CC)cccc3c21 (stereo not shown) [Example 9] | 38% | 37% |  |  |
| C=CC[C@@H]1CC[C@](CC)(CC(=O)O)c2[nH]c3cc(Br)ccc3c21 (relative stereo) [Example 18] |  |  | 3.6 mg/kg | ED50 ([2]; po): 17.5 mg/kg |
| C=CC[C@@H]1CC[C@](CC)(CC(=O)O)c2[nH]c3c(CC)cccc3c21 [Example 44, (1R-cis)-1,8-Diethyl-2,3,4,9-tetrahydro-4-(2-propenyl)-1H-carbazole-1-acetic Acid Benzenemethanamine Salt (1:1)] | 0% | 5% |  | Paw Pressure Test in the Rat percent inhibition ([3]; dose 1 mg/kg, rat): 30%; Paw Pressure Test in the Rat percent inhibition ([3]; dose 5 mg/kg, rat): 40% |
| C=CC[C@@H]1CC[C@](CC)(CC(=O)O)c2[nH]c3c(Cl)cc(Cl)cc3c21 (relative stereo) [Example 36] | 35% |  | 7.6 mg/kg |  |
| C=CC[C@@H]1CC[C@](CC)(CC(=O)O)c2[nH]c3c(CC)cccc3c21 (relative stereo) [Example 1, cis-1,8-Diethyl-2,3,4,9-tetrahydro-4-(2-propenyl)-1H-carbazole-1-acetic Acid] |  |  |  | Preventative Adjuvant Edema % Inhibition ([2]; 10 mg/kg): 31%; Preventative Adjuvant Edema % Inhibition ([2]; 25 mg/kg): 44%; Preventative Adjuvant Edema % Inhibition ([2]; 50 mg/kg): 38%; Phenylquinone Writhing in Mice % Inhibition ([1]; 10.6 mg/kg): 31%; Phenylquinone Writhing in Mice % Inhibition ([1]; 25 mg/kg): 60-80%; Phenylquinone Writhing in Mice % Inhibition ([1]; 200 mg/kg): 94%; ED50 ([3]; dose which causes analgesia in 50% of the animals, rat): 0.02 mg/kg |
| C=C(C)CC1CCC(CC)(CC(=O)O)c2[nH]c3ccccc3c21 (stereo not shown) [Example 24] | 56% | 29% |  |  |
| C=CC[C@@H]1CC[C@](CC)(CC(=O)O)c2[nH]c3c(CCC)cccc3c21 (relative stereo) [Example 5] | 39% |  | 28.7 mg/kg | inhibition in vivo at 10 mg/kg ([2]; po, 72 h, dose 10 mg/kg, rat (second results table), read-out: Preventative Adjuvant Edema percent inhibition): 29%; ED50 [3, 6]: 0.009 mg/kg |
| C=CC[C@@H]1CC[C@](CC)(CC(=O)O)c2[nH]c3c(Cl)cccc3c21 (relative stereo) [Example 16] |  |  | 11 mg/kg | ED50 ([2]; po): 13 mg/kg; ED50 [3, 6]: 0.89 mg/kg |
| C=CC[C@@H]1CC[C@](CC)(CC(=O)O)c2c1c1cccc(CC)c1n2C (relative stereo) [Example 43, cis-1,8-Diethyl-2,3,4,9-tetrahydro-9-methyl-4-(2-propenyl)-1H-Carbazole-1-acetic Acid] |  |  |  | inhibition in vivo at 200 mg/kg ([1]; Mus musculus, po, dose 200 mg/kg, mice (second results table), read-out: Phenylquinone Writhing in Mice percent inhibition): 32%; ED50 [3, 6]: 8 mg/kg |
| CCc1cccc2c3c([nH]c12)C(CC)(CC(=O)O)CCC3Cc1ccccc1 (single isomer, unassigned) [Example 2 Isomer B, 1,8-Diethyl-2,3,4,9-tetrahydro-4-(phenylmethyl)-1H-carbazole-1-acetic Acid] |  |  |  | Preventative Adjuvant Edema % Inhibition ([2]; 25 mg/kg): 38%; Phenylquinone Writhing in Mice % Inhibition ([1]; 25 mg/kg): 55% |
| C=CC[C@@H]1CC[C@](CC)(CC(=O)O)c2[nH]c3c(Br)ccc(C)c3c21 (relative stereo) [Example 33] | 27% |  | 4.5 mg/kg | ED50 [3, 6]: 0.93 mg/kg |
| C=CC[C@@H]1CC[C@](CC)(CC(=O)O)c2[nH]c3c(C)ccc(Cl)c3c21 (relative stereo) [Example 38] | 48% |  | 5.4 mg/kg |  |
| C=CC[C@@H]1CC[C@](CC)(CC(=O)O)c2[nH]c3c(C)c(Br)ccc3c21 (relative stereo) [Example 37] | 34% |  | 3 mg/kg |  |
| C=CC(C)(C)C1CCC(CC)(CC(=O)O)c2[nH]c3c(C)c(Cl)ccc3c21 (stereo not shown) [Example 35] | 30% | 28% |  |  |
| C=CC[C@@H]1CC[C@](CC)(CC(=O)O)c2[nH]c3c(F)cccc3c21 (relative stereo) [Example 15] |  | 27% |  | ED50 ([2]; po): 13.3 mg/kg |
| C=CC[C@@H]1CC[C@](CC)(CC(=O)O)c2[nH]c3ccc(F)cc3c21 (relative stereo) [Example 13] | 36% | 20% |  |  |
| C=CC[C@@H]1CC[C@](CC)(CC(=O)O)c2[nH]c3c(C(C)C)cccc3c21 (relative stereo) [Example 10] | 43% | 27% |  |  |
| C=CC[C@@H]1CC[C@](CC)(CC(=O)O)c2[nH]c3c(Br)cccc3c21 (relative stereo) [Example 14] |  | 38% |  | ED50 ([2]; po): 28 mg/kg |
| C=CCC1CCC(CCC)(CC(=O)O)c2[nH]c3c(CC)cccc3c21 (stereo not shown) [Example 21] | 24% | 21% |  |  |
| C=CC[C@@H]1CC[C@](CC)(CC(=O)O)c2[nH]c3c(I)cccc3c21 (relative stereo) [Example 22] | 46% |  | 17 mg/kg |  |
| CCc1cccc2c3c([nH]c12)C(CC)(CC(=O)O)CCC3Cc1ccccc1 (single isomer, unassigned) [Example 2 Isomer A, 1,8-Diethyl-2,3,4,9-tetrahydro-4-(phenylmethyl)-1H-carbazole-1-acetic Acid] |  |  |  | Preventative Adjuvant Edema % Inhibition ([2]; 25 mg/kg): 6%; Phenylquinone Writhing in Mice % Inhibition ([1]; 25 mg/kg): 15% |
| C=CC[C@@H]1CC[C@](CC)(CC(=O)O)c2[nH]c3cccc(Cl)c3c21 (relative stereo) [Example 17] |  | 35% |  | ED50 ([2]; po): 6.6 mg/kg |
| C=CC[C@@H]1CC[C@](CC)(CC(=O)O)c2[nH]c3cccc(Br)c3c21 (relative stereo) [Example 19] | 50% | 52% |  |  |
| C=CC(C)(C)C1CCC(CC)(CC(=O)O)c2[nH]c3c(F)cccc3c21 (stereo not shown) [Example 23] | 16% | 41% |  |  |
